Reference: publication PMC3849129 (International journal of antimicrobial agents, 2013)
Positions of bridges follow the written chain, without caps; N, C: chain ends. Non-standard residues stand in square brackets, D forms with d. Residues, ends and D or L forms follow the SMILES beside them. *: point of attachment. Heptanoyl(6-Me) = CC(C)CCCCC(=O)*; X1 = CC[C@H](C)CCCCC(=O)*; Octanoyl = CCCCCCCC(=O)*; Dab = NCC[C@H](N)C(=O)O

Assays:
[1] = Serum pharmacokinetics after intravenous administration in mice; settings: female, ND4 Swiss Webster, mouse, in vivo, 3 mg/kg
[2] = Epithelial lining fluid; assay type: in vivo, Swiss Webster mice; settings: for Time post dose up to which component could be quantified in ELF: mouse, in vivo
[3] = test system: PA 9019; settings: PA 9019, MDR bloodstream isolate; previously determined; cited from earlier work
[4] = test system: Pseudomonas aeruginosa ATCC 27853 (PA 27853); settings: previously determined; cited from earlier work

CC[C@H](C)CCCCC(=O)N[C@@H](CCN)C(=O)N[C@H](C(=O)N[C@@H](CCN)C(=O)N[C@H]1CCNC(=O)[C@H]([C@@H](C)O)NC(=O)[C@H](CCN)NC(=O)[C@H](CCN)NC(=O)[C@H](CC(C)C)NC(=O)[C@@H](Cc2ccccc2)NC(=O)[C@H](CCN)NC1=O)[C@@H](C)O [PB1, polymyxin B1] (X1-[Dab]T[Dab][Dab][Dab][dF]L[Dab][Dab]T; lactam 4-C)
half-life [1]: 19.2 min | AUC ratio (liposome:solution) in epithelial lining fluid ([2]; ELF AUC0–6h, i.v. ca. 3 mg/kg, mice): 6.21

CC(C)CCCCC(=O)N[C@@H](CCN)C(=O)N[C@H](C(=O)N[C@@H](CCN)C(=O)N[C@H]1CCNC(=O)[C@H]([C@@H](C)O)NC(=O)[C@H](CCN)NC(=O)[C@H](CCN)NC(=O)[C@H](CC(C)C)NC(=O)[C@@H](Cc2ccccc2)NC(=O)[C@H](CCN)NC1=O)[C@@H](C)O [PB2, polymyxin B2] ({Heptanoyl(6-Me)}-[Dab]T[Dab][Dab][Dab][dF]L[Dab][Dab]T; lactam 4-C)
Time post dose up to which component could be quantified in ELF [2]: up to 2 h

CCCCCCCC(=O)N[C@@H](CCN)C(=O)N[C@H](C(=O)N[C@@H](CCN)C(=O)N[C@H]1CCNC(=O)[C@H]([C@@H](C)O)NC(=O)[C@H](CCN)NC(=O)[C@H](CCN)NC(=O)[C@H](CC(C)C)NC(=O)[C@@H](Cc2ccccc2)NC(=O)[C@H](CCN)NC1=O)[C@@H](C)O [PB3, polymyxin B3] (Octanoyl-[Dab]T[Dab][Dab][Dab][dF]L[Dab][Dab]T; lactam 4-C)
Time post dose up to which component could be quantified in ELF [2]: up to 2 h

CC[C@H](C)CCCCC(=O)N[C@@H](CCN)C(=O)N[C@H](C(=O)N[C@@H](CCN)C(=O)N[C@H]1CCNC(=O)[C@H]([C@@H](C)O)NC(=O)[C@H](CCN)NC(=O)[C@H](CCN)NC(=O)[C@H]([C@@H](C)CC)NC(=O)[C@@H](Cc2ccccc2)NC(=O)[C@H](CCN)NC1=O)[C@@H](C)O [ile-PB1, isoleucine-B1] (X1-[Dab]T[Dab][Dab][Dab][dF]I[Dab][Dab]T; lactam 4-C)
Time post dose up to which component could be quantified in ELF [2]: up to 2 h

Polymyxin B [PB]
MIC [3]: 4 µg/mL | MIC [4]: 2 µg/mL
